Assay results taken from US10935552B2, “Aie luminogens for visualization and treatment of cancer” (THE HONG KONG UNIVERSITY OF SCIENCE AND TECHNOLOGY, priority 2015, dated 2021).

Legend:
MCF-7 cells [1] = assay: Photo-bleaching resistance by continuous scanning of stained MCF-7 cells; type: cell-based; conditions: MCF-7, 2 μM 30 min, 50 scans, total irradiation 3 min, 0.1 mW
Experimental: In order to determine the working mechanism of TPE-TMX to MCF-7 cells, probes with long-term tracking are highly pursued. To compare the photo-bleaching resistance between TPE-TMX and LTR, continuous scanning of the stained MCF-7 cells by UV irradiation was carried out and the PL intensity at each scan was recorded. These two sets of MCF-7 cells were first incubated in a medium for 24 hrs and then stained with TPE-TMX and LTR at 2 μM for 30 min, respectively. The excitation power from 405 nm and 561 nm channels of the microscope was unified as 0.1 mW. The initial fluorescence intensity for the dyes was normalized and the percentage of intensity loss was calculated.

MCF-7 cells [2] = assay: Lysosomal imaging in MCF-7 cells, co-staining with LTR; type: cell-based
Experimental: The behavior of TPE-TMX in cellular settings was studied as compared to TMX. MCF-7 cells were incubated with 2 μM TPE-TMX and […] TMX for 24 hrs, respectively. The cells were then washed and directly observed under the microscope without fixation. […] However, the exact intracellular location of TMX cannot be confirmed by fluorescent microscopy because its emission wavelength is not in the range of the visible spectrum. Therefore, a series of commercial fluorescent markers were used to image drug delivery of TMX. […] On the other hand, TPE-TMX, without any aid of fluorescent dye, can be successfully monitored in the cells thanks to its intense blue emission. The controls display no emission under UV irradiation.
To further confirm the subcellular distribution of TPE-TMX, LTR was also used to co-stain MCF-7 cells with TPE-TMX. […] As expected, TPE-TMX is a specific fluorescent dye to visualize lysosomal organelle structures as well as monitor the drug release.

[3] = tested on: ER+ breast cancer cells (MCF-7 cells); assay: MTT cytotoxicity of TPE-TMX, MCF-7 cells; type: cell-based
Experimental: (§1) For the rational molecular design of TPE-TMX, it is extremely critical that it can restore its therapeutic ability as TMX after the modification. To investigate its therapeutic performance, the cytotoxicity of TPE-TMX to a variety of cell lines was evaluated using a MTT assay (FIG. 33). […] Therefore, TPE-TMX may form a complex with receptor that can manifest selective accumulation in MCF-7 cells and lead to cell death.

different cell lines = assay: Fluorescence microscopy of different cell lines treated with TPE-TMX; type: cell-based
Description: (§2) To examine this hypothesis, fluorescence microscopy of different cell lines treated with TPE-TMX was undertaken. […] Lysosome is an acidic enzyme enriched organelle responsible for digesting intracellular biomolecules, while TPE-TMX with a basic amino group is more favored to target the lysosomes in cells. Once the molecules are accumulated on the surface of lysosome, their intermolecular motions are restricted, which activates the AIE process and thus lights up the organelle.

MCF-7 cells [4] = assay: Fluorescence microscopy and long-term tracing of MCF-7 cells treated with TPE-TMX; type: cell-based
Description: as §2
The whole cells exclude nuclei are highly emissive after the treatment of TPE-TMX for 192 hrs, which is proposed as autophagy. This mechanism is thought to be a degradation system that is mediated by a unique organelle called the autophagosome and then fuses with lysosome to form an autolysosome. Once the autolysosomes are formed, the cells become dysfunctional and eventually cause cell death. […] This is the first time that autophagy can be fluorescently monitored using a theranostic agent for breast cancer cells.

[5] = tested on: ER independent breast cancer cells (MDA-MB-231 cells); assay: MTT cytotoxicity of TPE-TMX, MDA-MB-231 cells; type: cell-based; conditions: MDA-MB-231, up to 10 μM
Experimental: as §1

a variety of cell lines = assay: MTT cytotoxicity of TPE-TMX, other cell lines; type: cell-based; conditions: up to 10 μM
Experimental: as §1

HeLa cells = assay: Cancer cell imaging for HeLa cells (TTE, TFE, fl-TFE); type: cell-based, human
Experimental: (§3) Cell Culture. HeLa cells were cultured in MEM containing 10% FBS and 1% antibiotics (100 units/mL penicillin and 100 µg/mL streptomycin) in a 5% CO2 humidity incubator at 37° C. Cell Imaging. Lung cancer cell A549 were cultured in DMEM containing 10% FBS and antibiotics (100 units/mL penicillin and 100 µg/mL streptomycin) in a 5% CO2 humidity incubator at 37° C. Two different kind of cells were grown overnight on a 35 mm petri dish with a cover slip. The live cells were incubated with 10 μM of TTE for 15/30 mins, TFE for 30′ and fl-TFE for 30′ and 5 h (the last two have been tested only in HeLa cells). In a typical experiment, 2 μL of a 10 mM stock solution of TTE in DMSO were diluted to 1 mL with cell culture medium, followed by further dilution to desired concentration. The cells were imaged under a fluorescent microscope (BX41 Microscope) using same excitation and emission filters: excitation filter=330-385 nm, dichroic mirror=420 nm, and emission filter=400 nm long pass.
The HeLa cells were grown overnight on a 35 mm petri dish with a cover slip. The live cells were incubated with 10 μM of TTE for 30 mins, which are shown in FIG. 17A-B. The HeLa cells were incubated with 50 μM oleic acid for 6 hrs and then were co-stained by 10 μM TTE and 1 μg/mL for 15 mins.

Lung cancer cell A549 = assay: Cancer cell imaging for lung cancer cell A549 by TTE; type: cell-based; conditions: A549, 10 μM TTE, 15 mins
Experimental: as §3
The A549 cells were grown overnight on a 35 mm petri dish with a cover slip. The live cells were incubated with 10 μM of TTE for 30 mins. The A549 cells were incubated with 10 μM TTE and 1 μg/mL for 15 mins.

What does the source list for `CN(C)CCOc1ccc(C(=C(c2ccccc2)c2ccccc2)c2ccccc2)cc1` [TPE-TMX]?
PL signal loss (MCF-7 cells [1]): no significant PL loss; Subcellular distribution (MCF-7 cells [2]; MCF-7, 2 μM 30 min, then LTR 15 min): selectively stains lysosomes; Pearson correlation coefficient of co-localization with LTR (r) (MCF-7 cells [2]; MCF-7, 2 μM TPE-TMX): 0.96; Cytotoxicity (therapeutic response) by MTT [3]: has only the therapeutic response to ER+ breast cancer cells (MCF-7 cells); Subcellular localisation (different cell lines; all tested cell lines): localized on lysosomes in all tested cell lines; Morphological effect (different cell lines; other cell lines): no obvious morphological change; Morphological effect (MCF-7 cells [4]; MCF-7): induces the formation of vacuole, lysosomal swelling and cell death; Effect on cells in continuous monitoring (MCF-7 cells [4]; MCF-7, 2 μM): induce vacuoles, lysosome swelling, and loss of the cell population; Fluorescence intensity in cells (MCF-7 cells [4]; MCF-7 versus other cell lines): more prominent in MCF-7 cells compared to the others; Fluorescence of stained cells with increasing number of passages (MCF-7 cells [4]; long-term tracing): increases with increasing number of passages; Cell viability by MTT [5]: not dramatically altered; Cell viability by MTT (a variety of cell lines): not dramatically altered

For `c1csc(C(=C(c2cccs2)c2cccs2)c2cccs2)c1` [TTE, TetraThienylEthene], which “Ability to enter cells as bioprobe” value (HeLa cells; 10 μM, TTE in HeLa and A549, TFE and fl-TFE only in HeLa) is on record?
Its value is “the only one able to enter inside the cells”.

What about the “Organelle selectivity (overlap with BODIPY)” value (HeLa cells; HeLa, 50 μM oleic acid 6 hrs, 10 μM TTE, 15 mins) of the same molecule?
The value was “can selectively target lipid droplets”.

And the “Organelle selectivity (overlap with BODIPY)” value (Lung cancer cell A549)?
The value was “can selectively target lipid droplets”.
